The record followed here is patent US12246095B2, “Oral dosage forms comprising a hops extract” (The New Zealand Institute for Plant and Food Research …, priority 2018, dated 2025).

Converted amounts (≈) assume the structure as drawn.

This assay deals with Hutu80 enteroendocrine cells. In words: Intracellular calcium in Hutu80 enteroendocrine cells as marker of Tas2R activation. Format: cell-based, human. As to conditions: for EC 50: Hutu-80, change in intracellular calcium at 5 min, doses 200 to 0.2 μM, Pacific Gem extract and purified acids. On the procedure: The capacity for hops extracts to activate bitter taste receptors was assessed using intracellular calcium concentrations [Ca2+]i as a marker of both Tas2R activation and appetite suppressing hormone release. A screening assay was carried out to compare the effects of high alpha acid and low alpha acid hops extracts on intracellular calcium in Hutu80 enteroendocrine cells. The acid composition of the high alpha acid hops was alpha acid (13.9%), beta acid (7.4%). The acid composition of the low alpha acid hops was alpha acid (2.7%) beta acid (5.0%).
An EC50 dose response showing the relative change in intracellular calcium in Hutu80 enteroendocrine cells at 5 min following the addition of either a high alpha acid (Pacific Gem, 13.9%) or low alpha acid (Wai-iti, 2.7%) hops extract is shown in FIG. 1 and Table 1.
Activation of human TAS2Rs receptors was measured by monitoring variations in intracellular Ca^2+ concentrations ([Ca^2+]i) using a Flurostar Omega (BMG LABTECH, Germany) (excitation 485 nm/emission 520 nm).
Hutu-80 cells (Cat #HTB-40, ATCC Manassas, Virginia) were seeded in supplemented MEM (Cat #11095-080, Thermo Fisher, Walthan, Massachusetts) into Poly-Lysin-coated 96-well black wall, clear bottom plates (Cat #356640, Corning Inc. New York) at a density of 3.5×10^5 cells/ml, 100 μl/wel, cultured overnight and then loaded with the Ca^2+-sensitive fluorescent dye Fluo 4-AM (Cat #F14201, Thermo Fisher, Walthan, Massachusetts), following suppliers guidelines. […]
Compounds to test were prepared in DMSO (Cat #D8418, Sigma, St. Louis, Missouri) and transferred onto the cells immediately prior to commencing of the assay measurements. To obtain a baseline, fluorescence signals (excitation 485 nm/emission 520 nm) were measured immediately before the addition of compounds on the cells.
The change in intracellular calcium in Hutu80 enteroendocrine cells was measured at 5 min following the addition of purified hops acids at doses of 200, 63.2, 20, 6.32, 2, 0.632, 0.2 and 0 μM.

Regarding `CC(C)=CCC1=C(O)C(O)(CC=C(C)C)C(=O)C(C(=O)C(C)C)=C1O` (stereo not drawn) [Cohumulone, cohumulone], the “EC 50” value was 1.153 µg/mL (≈ 3.31 µM). The “stimulating bitter taste receptor (Tas2R) signalling in human enteroendocrine cells” value (Hutu80, intracellular calcium) is recorded as “activity at the lowest concentration”.

Consider `CC(C)=CCC1=C(O)C(C(=O)C(C)C)=C(O)C(CC=C(C)C)(CC=C(C)C)C1=O` [Colupulone, colupulone], for which the “EC 50” value was determined as 12.72 µg/mL (≈ 31.8 µM).
